Experimental findings from ChEMBL document CHEMBL5154882, “Discovery of 4-Hydroxyquinazoline Derivatives as Small Molecular BET/PARP1 Inhibitors That Induce Defective Homologous Recombination and Lead to Synthetic Lethality for Triple-Negative Breast Cancer Therapy” (J Med Chem, 2022) are described below.

For orientation: inhibition means the change of the read-out against control, counted positive when it falls. High values mean strong suppression, low ones little suppression. What is called AUC(0-t) is exposure summed from dosing to a finite time, without extrapolation to infinity. Low readings indicate low exposure, high ones high exposure.

In data set [1] the target is Bromodomain-containing protein 4 (Homo sapiens, UniProt O60885). Briefly: Inhibition of BRD4 (unknown origin) at 1 uM relative to control.
The subject of another data set is MDA-MB-468. As to the kind of experiment: Cell cycle arrest in human MDA-MB-468 cells assessed as accumulation at G0/G1 phase at 10 uM incubated for 72 hrs by propidium iodide staining-based flow cytometry analysis (reference value: 61.4%). The data set is classed as functional. (In flow cytometry, cells or beads pass a laser one at a time.)
Data set [2] in a line: AUC (0 to t) in Sprague-Dawley rat at 1 mg/kg, iv. Particulars: in vivo. On the set-up: dose 1 mg/kg, route iv. The data set is classed as ADME, organism-based.
Data set [3] is described as follows: Toxicity in BALB/c nude mouse xenografted with human MDA-MB-468 cells assessed as morphological changes in lung at 80 mg/kg, ig administered daily for 16 days measured every 3 days by hematoxyin-eosin staining based analysis. To be noted: in vivo, po, 384 h, time 16 day. The data set is classed as organism-based.

Compound `COc1cc(OC)c2c(=O)[nH]c(-c3cccc(Cc4n[nH]c(=O)c5ccccc45)c3)nc2c1` showed an inhibition in data set [1] of 76.2%. For the same compound, the Activity is listed as 63.2% in the data set with MDA-MB-468 and “Non-Toxic” in data set [3]. In addition, in data set [2], the AUC(0-t) was 629 ng·h/mL.
